In patent US20140094414A1, “COMPOSITION FOR PREVENTING OR TREATING NEURODEGENERATIVE DISEASE INCLUDING BIOACTIVE PEPTIDE AS EFFECTIVE COMPONENT” (PUKYONG NATIONAL UNIVERSITY INDUSTRY-UNIVERSITY CO, priority 2012, published 2014):
No end group written: not given here.

Experiments:
[1] = system: BV2 cells, murine microglia; assay: Cytotoxicity, MTT assay in BV2 cells; format: cell-based; details: for cytotoxicity in BV2 cell: 10, 50, 100 μM, 24 and 48 hours
Description: Cytoprotective effect was determined by MTT reduction assay. […] After incubations for 24 hours and 48 hours, the incubated cells were washed with PBS, 100 μl of MTT (0.5 mg/ml final concentration) was added to each wells, and incubation was continued for another 4 hours for a reduction of MTT. […] Relative cell viability was calculated as a percentage compared with the absorbance of the untreated control group.

[2] = system: PC12 cells co-cultured with BV2 cells; assay: Co-culture of Aβ42-activated BV2 cells and PC12 cells, MTT assay; details: 100 μM peptide, 48 hours, 5 uM Aβ42
Description: For the co-culture of microglia and PC12 cells, which has been employed to assess the neurotoxin effect of activated microglia, microglia was first seeded onto cell culture inserts (pore size of 0.2 μm; SPL, Korea). After overnight incubation, microglia were left untreated or exposed 5 uM Aβ42 in the presence or absence of peptides for 24 h. Afterwards, the microglial cells were co-cultured with PC12 cells by transferring the culture inserts containing microglia onto PC12 cell monolayers (see FIG. 15).
In order to confirm cell viability of co-cultured PC12 cell, MTT assay was performed.

NO = NO production, Griess reaction in Aβ42-stimulated BV2 cells; format: cell-based, murine; details: stimulation with Aβ42 alone (control), 1 μM 48 h
Description: NO levels in the cultured BV2 cells' supernatants were measured by the Griess reaction. In brief, BV2 cells were pre incubated overnight in 24-well plates using DMEM without phenol red at a density 2×10^5 cells/ml, followed by the treatment with the HIP-1 peptide of the present invention having various concentrations (10, 50, 100 μM) as a sample for 6 h. After 6 h, the NO production was stimulated by adding Aβ42 (1 μM final concentration) and incubated for further 48 h. Then 50 μl of culture supernatants from each samples was mixed with the same volume of the Griess reagent [1% sulfanilamide/0.1% N-1-naphthyl]-ethylenediamine dihydrochloride/2.5% phosphoric acid] following the incubation for 15 min. Absorbance values were read at 540 nm using ELISA microplate reader (Tecan GmbH, Austria). Blank was not treated, and control was activated BV2 cells by exposing Aβ42 without the HIP-1 peptide of the present invention.

[3] = system: nerve cells-differentiated PC12 cells
Description: The present inventors induced a nerve toxin in PC12 cells by differentiating PC12 cells into nerve cells through treating with NGF, and then treating to the differentiated PC12 cells with 20 μM of Aβ42 for 24 hours.
Cytoprotective effect was determined by MTT reduction assay. […] After incubation for 24 hours, 100 μl of MTT (1 mg/ml final concentration) was added to each of wells and incubation was continued for another 4 hours. MTT is used as an indicator of cell viability through its mitochondrial reduction to formazan. Mitochondrial succinate dehydrogenase in live cells converts MTT into visible formazan crystals during incubation. The formazan crystals were then solubilized in DMSO and the absorbance was measured at 540 nm by using enzyme-linked immunosorbent assay (ELISA) microplate reader (Tecan GmbH, Austria). Relative cell viability was calculated compared with the absorbance of the untreated control group.

| Substance | cytotoxicity in BV2 cell [1] | cell viability of PC12 cells co-cultured with BV2 cells [2] [%] | toxicity of Aβ42 in BV2 cells ([1]; Aβ42 0.1, 0.5, 1, 5, 10 μM) | production of NO (NO) [µM] | cell viability of nerve cell-differentiated PC12 cells ([3]; 10 μM Aβ42, FIG. 2) | PC12 cell viability ([3]; 20 μM Aβ42 for 24 h) |
| --- | --- | --- | --- | --- | --- | --- |
| FLHDVQ [HTP-2, FLHDVQ] | did not exhibit cytotoxicity | 75.19±2.55 | – | – | – | – |
| GTEDELDK [HTP-1] | did not exhibit cytotoxicity | 82.49±3.05 | – | – | – | – |
| amyloid-beta 42 [Aβ42] | – | – | no toxicities | 24.59 ± 2.54 | greatly decreased | reduction |
